Results reported in ChEMBL document CHEMBL4811290, “Exploiting the hydrophobic channel of the NNIBP: Discovery of novel diarylpyrimidines as HIV-1 NNRTIs against wild-type and K103N mutant viruses” (Bioorg Med Chem, 2021).
Converted amounts (≈) assume the structure as drawn. The source made the active and inactive calls. The calls are words filed in the database; no cut-off is given here.

Tests used:
[1] = Water solubility of compound at pH 2; format: physicochemical
[2] = Cytotoxicity against mock-infected human MT4 cells incubated for 5 days by MTT assay; format: cell-based; conditions: time 5 day
[3] = Water solubility of compound at pH 7.4; format: physicochemical
[4] = test system: Human immunodeficiency virus 1; assay: Antiviral activity against HIV1 harboring RT F227L/V106A mutant infected in human MT4 cells assessed as inhibition of virus-induced cytopathic effect incubated for 5 days by MTT assay; format: functional, organism-based; conditions: Human immunodeficiency virus 1, MT4, 120 h
[5] = test system: Human immunodeficiency virus 1; assay: Antiviral activity against wild type HIV-1 IIIB infected in human MT4 cells assessed as inhibition of virus-induced cytopathic effect measured after 5 days by MTT assay; format: functional, organism-based; conditions: Human immunodeficiency virus 1, IIIB, MT4, 120 h
MT4 = assay: Antiviral activity against wild type HIV-2 ROD infected in human MT4 cells assessed as inhibition of virus-induced cytopathic effect measured after 5 days by MTT assay; format: functional, cell-based; conditions: Human immunodeficiency virus 2, ISOLATE ROD, time 5.0 day
[6] = target: Human immunodeficiency virus type 1 reverse transcriptase (Human immunodeficiency virus 1, UniProt Q72547); assay: Inhibition of HIV-1 reverse transcriptase assessed as inhibition of biotin-dUTP incorporation into cDNA measured after 1 hr by ELISA
[7] = Selectivity index, ratio of CC50 for human MT4 cells to EC50 for Antiviral activity against HIV-1 IIIB infected in human MT4 cells; format: toxicity, cell-based; conditions: read-out: Selectivity Index
[8] = test system: Human immunodeficiency virus 1; assay: Antiviral activity against HIV1 harboring RT RES056 mutant infected in human MT4 cells assessed as inhibition of virus-induced cytopathic effect incubated for 5 days by MTT assay; format: functional, organism-based; conditions: Human immunodeficiency virus 1, MT4, 120 h
[9] = Water solubility of compound at pH 7; format: physicochemical
[10] = test system: Human immunodeficiency virus 1; assay: Antiviral activity against HIV1 harboring RT Y181C mutant infected in human MT4 cells assessed as inhibition of virus-induced cytopathic effect incubated for 5 days by MTT assay; format: functional, organism-based; conditions: Human immunodeficiency virus 1, MT4, 120 h
[11] = test system: Human immunodeficiency virus 1; assay: Antiviral activity against HIV1 harboring RT L100I mutant infected in human MT4 cells assessed as inhibition of virus-induced cytopathic effect incubated for 5 days by MTT assay; format: functional, organism-based; conditions: Human immunodeficiency virus 1, MT4, 120 h
[12] = test system: Human immunodeficiency virus 1; assay: Antiviral activity against HIV1 harboring RT E138K mutant infected in human MT4 cells assessed as inhibition of virus-induced cytopathic effect incubated for 5 days by MTT assay; format: functional, organism-based; conditions: Human immunodeficiency virus 1, MT4, 120 h
[13] = test system: Human immunodeficiency virus 1; assay: Antiviral activity against HIV1 harboring RT Y188L mutant infected in human MT4 cells assessed as inhibition of virus-induced cytopathic effect incubated for 5 days by MTT assay; format: functional, organism-based; conditions: Human immunodeficiency virus 1, MT4, 120 h
[14] = test system: Human immunodeficiency virus 1; assay: Antiviral activity against HIV1 harboring K103N mutant infected in human MT4 cells assessed as inhibition of virus-induced cytopathic effect incubated for 5 days by MTT assay; format: functional, organism-based; conditions: Human immunodeficiency virus 1, MT4, 120 h

| Compound | solubility [1] [µg/mL] | CC50 at 120 h [2] [nM] | solubility [3] [µg/mL] | EC50 [4] [nM] | EC50 [5] [nM] | Activity (MT4) | IC50 [6] [nM] | selectivity ratio [7] | EC50 [8] [nM] | solubility [9] [µg/mL] | EC50 [10] [nM] | EC50 [11] [nM] | EC50 [12] [nM] | EC50 [13] [nM] | EC50 [14] [nM] |
| --- | --- | --- | --- | --- | --- | --- | --- | --- | --- | --- | --- | --- | --- | --- | --- |
| Cc1cc(C#CC=C2CCNCC2)cc(C)c1Oc1ccnc(Nc2ccc(C#N)cc2)n1 | 47.3 (≈ 109 µM) | 4810 | 67 (≈ 154 µM) | 1270 | 16 | inactive | 130 | 294 | 1460 | 60.5 (≈ 139 µM) | 281 | 231 | 204 | 211 | 39 |
| Cc1cc(C#CC=C2CCN(Cc3cccc([N+](=O)[O-])c3)CC2)cc(C)c1Oc1ccnc(Nc2ccc(C#N)cc2)n1 | – | 74600 | – | 26700 | 187 | inactive | – | 399 | > 74600 | – | 5550 | 2770 | 2150 | 5330 | 510 |
| Cc1cc(C#CC=C2CCN(C(=O)N(C)C)CC2)cc(C)c1Oc1ccnc(Nc2ccc(C#N)cc2)n1 | – | 4430 | – | > 4430 | 35 | inactive | – | 125 | > 4430 | – | 799 | 617 | 265 | 521 | 86 |
| Nc1ccn([C@H]2CS[C@@H](CO)O2)c(=O)n1 | – | > 87200 | – | 2170 | 5230 | inactive | – | > 309 | 5060 | – | 3400 | 1150 | 8270 | 4560 | 2790 |
| Cc1cc(C#CC=C2CCN(S(C)(=O)=O)CC2)cc(C)c1Oc1ccnc(Nc2ccc(C#N)cc2)n1 | 20.4 (≈ 39.7 µM) | 5490 | 26.6 (≈ 51.8 µM) | > 5490 | 29 | inactive | 1980 | 186 | > 5490 | 27.1 (≈ 52.8 µM) | 913 | 282 | 170 | 452 | 57 |
| C=CC(=O)N1CCC(=CC#Cc2cc(C)c(Oc3ccnc(Nc4ccc(C#N)cc4)n3)c(C)c2)CC1 | – | 4100 | – | > 4100 | 35 | inactive | – | 116 | > 4100 | – | 1100 | 345 | 240 | 409 | 46 |
| Cc1cc(C#CC=C2CCN(Cc3ccccc3C#N)CC2)cc(C)c1Oc1ccnc(Nc2ccc(C#N)cc2)n1 | – | > 227000 | – | > 42400 | 376 | inactive | – | > 604 | > 227000 | – | 20400 | 8540 | 5460 | 16100 | 1010 |
| Cc1ccnc2c1NC(=O)c1cccnc1N2C1CC1 [NEVIRAPINE] | – | > 15000 | – | > 15000 | 160 | inactive | – | > 94 | > 15000 | – | 10500 | 2520 | 258 | > 15000 | 6550 |
| Cc1cc(C#CC=C2CCN(Cc3ccccn3)CC2)cc(C)c1Oc1ccnc(Nc2ccc(C#N)cc2)n1 | – | 5580 | – | > 5580 | 74 | inactive | – | 75 | > 5580 | – | 4250 | > 5580 | 805 | 1030 | 200 |
| COC(=O)c1ccc(CN2CCC(=CC#Cc3cc(C)c(Oc4ccnc(Nc5ccc(C#N)cc5)n4)c(C)c3)CC2)cc1 | – | 33600 | – | > 33600 | 656 | inactive | – | 51 | > 33600 | – | > 33600 | > 33600 | 5460 | > 33600 | 782 |
| Cc1cc(C#CC=C2CCN(S(=O)(=O)C(C)C)CC2)cc(C)c1Oc1ccnc(Nc2ccc(C#N)cc2)n1 | – | 4580 | – | > 4580 | 171 | inactive | – | 27 | > 4580 | – | > 4580 | > 4580 | 918 | > 4580 | 573 |
| Cc1cc(C#CC=C2CCN(S(=O)(=O)N(C)C)CC2)cc(C)c1Oc1ccnc(Nc2ccc(C#N)cc2)n1 | – | 4790 | – | > 4790 | 114 | inactive | – | 42 | > 4790 | – | > 4790 | > 4790 | 750 | > 4790 | 209 |
| O=C1Nc2ccc(Cl)cc2[C@@](C#CC2CC2)(C(F)(F)F)O1 [EFAVIRENZ] | – | > 6350 | – | – | – | inactive | – | – | 332 | – | 6 | 37 | 7 | 212 | 103 |
| CCC(=O)N1CCC(=CC#Cc2cc(C)c(Oc3ccnc(Nc4ccc(C#N)cc4)n3)c(C)c2)CC1 | 64.7 (≈ 132 µM) | 4420 | 66.5 (≈ 135 µM) | 1300 | 22 | inactive | 2980 | 201 | > 4420 | 62.2 (≈ 127 µM) | 772 | 253 | 171 | 382 | 57 |
| CCS(=O)(=O)N1CCC(=CC#Cc2cc(C)c(Oc3ccnc(Nc4ccc(C#N)cc4)n3)c(C)c2)CC1 | – | 4960 | – | > 4960 | 79 | inactive | – | 62 | > 4960 | – | > 1350 | 1080 | 493 | 1280 | 165 |
| Cc1cn([C@H]2C[C@H](N=[N+]=[N-])[C@@H](CO)O2)c(=O)[nH]c1=O [ZIDOVUDINE] | – | > 7480 | – | 10 | 21 | inactive | – | > 352 | 24 | – | 15 | 9 | 35 | 12 | 22 |
| Cc1cc(C#CC=C2CCN(C(=O)OC(C)(C)C)CC2)cc(C)c1Oc1ccnc(Nc2ccc(C#N)cc2)n1 | – | 16700 | – | > 56700 | 643 | inactive | – | 26 | > 56700 | – | > 56700 | 984 | > 56700 | 5560 | > 56700 |
| CCOC(=O)CN1CCC(=CC#Cc2cc(C)c(Oc3ccnc(Nc4ccc(C#N)cc4)n3)c(C)c2)CC1 | – | 201000 | – | > 201000 | 7050 | inactive | – | 29 | > 201000 | – | > 201000 | > 201000 | > 201000 | > 201000 | 39000 |
| Cc1cc(C#CC=C2CCN(S(=O)(=O)C3CC3)CC2)cc(C)c1Oc1ccnc(Nc2ccc(C#N)cc2)n1 | – | 4660 | – | > 4660 | 98 | inactive | – | 47 | > 4660 | – | > 4660 | > 4660 | 685 | 1410 | 284 |
| Cc1cc(C#N)cc(C)c1Oc1nc(Nc2ccc(C#N)cc2)nc(N)c1Br [ETRAVIRINE] | < 1 | > 4610 | – | 20 | – | inactive | – | – | 67 | – | 20 | 8 | 19 | 21 | – |
